# Results taken from patent publication US20090270450A1, “CHEMICAL COMPOUNDS” (ASTRAZENECA AB, priority 2006, published 2009).
# Target: T1, His-tagged kinase domain of CSF-1R (amino acids 568-912) (Homo sapiens, UniProt P07333)
# T1 construct: The His-tagged kinase domain of CSF-1R (i.e., amino acids 568-912, GeneBank ID NM_005211); His; made in house; host or cells: baculovirus infected SF+Express insect cells
# T1 sequence (P07333 568-912): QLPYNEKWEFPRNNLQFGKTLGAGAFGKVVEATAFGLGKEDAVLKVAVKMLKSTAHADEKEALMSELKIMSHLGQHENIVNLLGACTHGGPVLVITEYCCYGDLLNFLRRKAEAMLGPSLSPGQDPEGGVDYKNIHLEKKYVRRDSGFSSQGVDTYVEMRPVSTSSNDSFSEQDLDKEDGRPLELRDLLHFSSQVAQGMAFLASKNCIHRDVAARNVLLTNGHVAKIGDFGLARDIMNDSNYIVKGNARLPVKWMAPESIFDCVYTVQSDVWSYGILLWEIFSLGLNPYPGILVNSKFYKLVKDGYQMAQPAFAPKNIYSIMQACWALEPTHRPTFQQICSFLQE
# Assay: Assay 1: CSF-1R in vitro AlphaScreen assay
# Format: biochemical
# Conditions: phosphorylation of biotinylated pEY substrate; 0.57 nM CSF-1R, 90 μM ATP
# Protocol: Assay 1: CSF-1R in Vitro AlphaScreen Assay
# Activity of purified CSF-1R was determined in vitro using an Amplified Luminescent Proximity Homogeneous Assay (ALPHA)(Perkin Elmer), which measures phosphorylation of the CSF-1R substrate, biotinylated poly-glutamine-tyrosine peptide (PEY-HTRF CisBio 61GT0BLD), as described below. The His-tagged kinase domain of CSF-1R (i.e., amino acids 568-912, GeneBank ID NM_005211; (see page 25 lines 13-19 of WO 2006/067445 for the sequence listing)) was purified from baculovirus infected SF+Express insect cells (1.4×10^6 cells/ml), French pressed and chromatographed through subsequent Qiagen Ni-NTA, Superflow Mono Q HR 10/10, and Superdex 200 SEC columns. Typical yield was 245 μg/l of cell pellet at >95% purity.
# The phosphorylation of the CSF-1R substrate in the presence and absence of the compound of interest was determined. Briefly, 0.57 nM of purified CSF-1R, 5 nM pEY substrate, and compound were preincubated in 1× buffer for 30 minutes at 25° C. Reactions were initiated with addition of 90 μM adenosine triphosphate (ATP) in 1× buffer and incubated at 25° C. for 60 minutes and reactions stopped by addition of 5 μl of detection mix consisting of 136 mM NaCl, 102 mM ethylenediamine tetraacetic acid, 1.65 mg/ml BSA, 40 ug/ml Streptavidin donor beads (Perkin Elmer 6760002), 40 ug/ml pTyr100 acceptor beads (Perkin Elmer 6760620). Plates were incubated at 25° C. for 18 hours in the dark. Phosphorylated substrate was detected by an EnVision plate reader (Perkin Elmer) 680 nm excitation, 520-620 nm emission. Data was graphed and IC50s calculated using Excel Fit (Microsoft).
row,SMILES,IC50
1,"COc1cc2ncc(C(N)=O)c(Nc3ccc(F)cc3F)c2cc1CCCN1CCCCC1 [Example 8, 4-[(2,4-Difluorophenyl)amino]-7-methoxy-6-(3-piperidin-1-ylpropyl)quinoline-3-carboxamide]",20 nM
2,"COc1cc2ncc(C(N)=O)c(Nc3ccc(F)cc3F)c2cc1CCCNC1CC1 [Example 10, 6-[3-(Cyclopropylamino)propyl]-4-[(2,4-difluorophenyl)amino]-7-methoxyquinoline-3-carboxamide]",23 nM
3,"COc1cc2ncc(C(N)=O)c(Nc3ccc(F)cc3F)c2cc1CCCO [Example 14, 4-[(2,4-Difluorophenyl)amino]-6-(3-hydroxypropyl)-7-methoxyquinoline-3-carboxamide]",8 nM
4,"COc1cc2ncc(C(N)=O)c(Nc3ccc(F)c(Cl)c3)c2cc1CCCO [Example 17, 4-[(3-Chloro-4-fluorophenyl)amino]-6-(3-hydroxypropyl)-7-methoxyquinoline-3-carboxamide]",9 nM
5,"COc1cc2ncc(C(N)=O)c(Nc3cccc(Cl)c3Cl)c2cc1CCCO [Example 19, 4-[(2,3-Dichlorophenyl)amino]-6-(3-hydroxypropyl)-7-methoxyquinoline-3-carboxamide]",8 nM
6,"CCc1ccc(Nc2c(C(N)=O)cnc3cc(OC)c(CCCO)cc23)cc1 [Example 20, 4-[(4-Ethylphenyl)amino]-6-(3-hydroxypropyl)-7-methoxyquinoline-3-carboxamide]",38 nM
7,"CCc1ccc(Nc2c(C(N)=O)cnc3cc(OC)c(C#CCO)cc23)cc1 [Example 21, 4-[(4-Ethylphenyl)amino]-6-(3-hydroxyprop-1-yn-1-yl)-7-methoxyquinoline-3-carboxamide]",18 nM
8,"CCOc1cc2ncc(C(N)=O)c(Nc3ccc(CC)cc3)c2cc1CCCO [Example 22, 7-Ethoxy-4-[(4-ethylphenyl)amino]-6-(3-hydroxypropyl)quinoline-3-carboxamide]",33 nM
9,"CCOc1cc2ncc(C(N)=O)c(Nc3ccc(Cl)c(Cl)c3)c2cc1CCCO [Example 23, 4-[(3,4-Dichlorophenyl)amino]-7-ethoxy-6-(3-hydroxypropyl)quinoline-3-carboxamide]",22 nM
10,"CCOc1cc2ncc(C(N)=O)c(Nc3cccc(Cl)c3Cl)c2cc1CCCO [Example 24, 4-[(2,3-Dichlorophenyl)amino]-7-ethoxy-6-(3-hydroxypropyl)quinoline-3-carboxamide]",26 nM
11,"COc1cc2ncc(C(N)=O)c(Nc3ccc(Cl)c(Cl)c3)c2cc1C1CC1 [Example 26, 6-Cyclopropyl-4-[(3,4-dichlorophenyl)amino]-7-methoxyquinoline-3-carboxamide]",140 nM
12,"COc1cc2ncc(C(N)=O)c(Nc3ccc(F)cc3F)c2cc1C1CC1 [Example 27, 6-Cyclopropyl-4-[(2,4-difluorophenyl)amino]-7-methoxyquinoline-3-carboxamide]",65 nM
13,"COc1cc2c(Nc3ccc(F)cc3F)c(C(N)=O)cnc2cc1C1CC1 [Example 28, 7-Cyclopropyl-4-[(2,4-difluorophenyl)amino]-6-methoxyquinoline-3-carboxamide]",14 nM
14,"COc1cc2c(Nc3ccc(Cl)c(Cl)c3)c(C(N)=O)cnc2cc1C1CC1 [Example 29, 7-Cyclopropyl-4-[(3,4-dichlorophenyl)amino]-6-methoxyquinoline-3-carboxamide]",57 nM
15,"CCOc1cc2ncc(C(N)=O)c(Nc3ccc(F)cc3F)c2cc1-c1ccc(OC)nc1 [Example 30, 4-[(2,4-Difluorophenyl)amino]-7-ethoxy-6-(6-methoxypyridin-3-yl)quinoline-3-carboxamide]",76 nM
16,"CCOc1cc2ncc(C(N)=O)c(Nc3ccc(F)cc3F)c2cc1-c1cccnc1 [Example 31, 4-[(2,4-Difluorophenyl)amino]-7-ethoxy-6-pyridin-3-ylquinoline-3-carboxamide]",43 nM
17,"CCOc1cc2ncc(C(N)=O)c(Nc3ccc(F)cc3F)c2cc1-c1c(C)noc1C [Example 32, 4-[(2,4-Difluorophenyl)amino]-6-(3,5-dimethylisoxazol-4-yl)-7-ethoxyquinoline-3-carboxamide]",35 nM
18,"CCOc1cc2ncc(C(N)=O)c(Nc3ccc(F)cc3F)c2cc1-c1ccc[nH]1 [Example 33, 4-[(2,4-Difluorophenyl)amino]-7-ethoxy-6-(1H-pyrrol-2-yl)quinoline-3-carboxamide]",96 nM
19,"CCOc1cc2ncc(C(N)=O)c(Nc3ccc(F)cc3F)c2cc1-c1cncnc1 [Example 34, 4-[(2,4-Difluorophenyl)amino]-7-ethoxy-6-pyrimidin-5-ylquinoline-3-carboxamide]",25 nM
20,"CCOc1cc2ncc(C(N)=O)c(Nc3ccc(F)cc3F)c2cc1-c1ccncc1 [Example 35, 4-[(2,4-Difluorophenyl)amino]-7-ethoxy-6-pyridin-4-ylquinoline-3-carboxamide]",61 nM
21,"CCOc1cc2ncc(C(N)=O)c(Nc3ccc(F)cc3F)c2cc1-c1cn[nH]c1 [Example 36, 4-[(2,4-Difluorophenyl)amino]-7-ethoxy-6-(1H-pyrazol-4-yl)quinoline-3-carboxamide]",28 nM
22,"CCOc1cc2ncc(C(N)=O)c(Nc3ccc(F)cc3F)c2cc1-c1cnn(CC(C)C)c1 [Example 37, 4-[(2,4-Difluorophenyl)amino]-7-ethoxy-6-(1-isobutyl-1H-pyrazol-4-yl)quinoline-3-carboxamide]",440 nM
23,"CCOc1cc2ncc(C(N)=O)c(Nc3ccc(F)cc3F)c2cc1C1=CCN(C(=O)OC(C)(C)C)CC1 [Example 38, tert-Butyl 4-{3-(aminocarbonyl)-4-[(2,4-difluorophenyl)amino]-7-ethoxyquinolin-6-yl}-3,6-dihydropyridine-1(2H)-carboxylate]",660 nM

# Now those with a lower IC50, led by results:
row,IC50,SMILES
1,2 nM,"COc1cc2ncc(C(N)=O)c(Nc3ccc(Cl)c(Cl)c3)c2cc1CCCN [Example 1, 6-(3-Aminopropyl)-4-[(3,4-dichlorophenyl)amino]-7-methoxyquinoline-3-carboxamide]"
2,5 nM,"CCOc1cc2ncc(C(N)=O)c(Nc3cccc(Cl)c3F)c2cc1CCCO [Example 3, 4-[(3-Chloro-2-fluorophenyl)amino]-7-ethoxy-6-(3-hydroxypropyl)quinoline-3-carboxamide]"
3,3 nM,"COc1cc2ncc(C(N)=O)c(Nc3ccc(F)cc3F)c2cc1CCCN(C)C [Example 9, 4-[(2,4-Difluorophenyl)amino]-6-[3-(dimethylamino)propyl]-7-methoxyquinoline-3-carboxamide]"
4,4 nM,"COc1cc2ncc(C(N)=O)c(Nc3ccc(Cl)c(Cl)c3)c2cc1CCCNC1CC1 [Example 11, 6-[3-(Cyclopropylamino)propyl]-4-[(3,4-dichlorophenyl)amino]-7-methoxyquinoline-3-carboxamide]"
5,4 nM,"COc1cc2ncc(C(N)=O)c(Nc3ccc(Cl)c(Cl)c3)c2cc1CCCN1CCCCC1 [Example 12, 4-[(3,4-Dichlorophenyl)amino]-7-methoxy-6-(3-piperidin-1-ylpropyl)quinoline-3-carboxamide]"
6,1 nM,"COc1cc2ncc(C(N)=O)c(Nc3ccc(Cl)c(Cl)c3)c2cc1CCCN(C)C [Example 13, 4-[(3,4-Dichlorophenyl)amino]-6-[3-(dimethylamino)propyl]-7-methoxyquinoline-3-carboxamide]"
7,2 nM,"COc1cc2ncc(C(N)=O)c(Nc3ccc(Cl)c(Cl)c3)c2cc1CCCO [Example 15, 4-[(3,4-Dichlorophenyl)amino]-6-(3-hydroxypropyl)-7-methoxyquinoline-3-carboxamide]"
8,5 nM,"CCOc1cc2ncc(C(N)=O)c(Nc3ccc(F)cc3F)c2cc1CCCO [Example 16, 4-[(2,4-Difluorophenyl)amino]-7-ethoxy-6-(3-hydroxypropyl)quinoline-3-carboxamide]"
9,< 3 nM,"COc1cc2ncc(C(N)=O)c(Nc3cccc(Cl)c3F)c2cc1CCCO [Example 18, 4-[(3-Chloro-2-fluorophenyl)amino]-6-(3-hydroxypropyl)-7-methoxyquinoline-3-carboxamide]"
10,7 nM,"CCOc1cc2ncc(C(N)=O)c(Nc3ccc(F)c(Cl)c3)c2cc1CCCO [Example 25, 4-[(3-Chloro-4-fluorophenyl)amino]-7-ethoxy-6-(3-hydroxypropyl)quinoline-3-carboxamide]"
